{"source": "ChEMBL document CHEMBL1201862", "about": "“PubChem BioAssay data set” (2004)", "key": {"[1]": {"target": "Eukaryotic translation initiation factor 4H (Homo sapiens, UniProt Q15056)", "assay": "eIF4H binding inhibition – biochemical, uHTS, fluorescence polarization, translation initiation inhibitor project, primary screen (AID 2012)"}, "[2]": {"target": "Polyadenylate-binding protein 1 (Homo sapiens, UniProt P11940)", "sequence (P11940 whole entry)": "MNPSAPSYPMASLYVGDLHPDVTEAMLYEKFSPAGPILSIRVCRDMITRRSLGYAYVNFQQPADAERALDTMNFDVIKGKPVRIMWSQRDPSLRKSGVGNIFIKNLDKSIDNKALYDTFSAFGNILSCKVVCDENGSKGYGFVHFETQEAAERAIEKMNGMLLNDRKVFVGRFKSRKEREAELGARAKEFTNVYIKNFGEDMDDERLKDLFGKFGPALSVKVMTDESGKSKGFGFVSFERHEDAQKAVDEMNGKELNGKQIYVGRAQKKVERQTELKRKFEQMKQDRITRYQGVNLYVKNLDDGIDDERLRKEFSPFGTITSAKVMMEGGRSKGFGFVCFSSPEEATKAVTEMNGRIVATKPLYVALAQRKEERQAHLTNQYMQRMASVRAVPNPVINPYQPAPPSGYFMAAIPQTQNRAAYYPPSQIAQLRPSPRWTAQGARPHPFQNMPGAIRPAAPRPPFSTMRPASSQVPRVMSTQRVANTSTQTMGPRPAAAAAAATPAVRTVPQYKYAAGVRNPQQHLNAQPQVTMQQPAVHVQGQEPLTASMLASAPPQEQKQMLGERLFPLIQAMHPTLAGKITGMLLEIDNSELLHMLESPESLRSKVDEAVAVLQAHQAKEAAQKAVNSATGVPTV", "assay": "blockers of PABP interaction with poly(A) – biochemical, fluorescence polarization, […] (AID 2014)"}, "[3]": {"target": "T1, Eukaryotic translation initiation factor 2-alpha kinase 3 (Homo sapiens, UniProt Q9NZJ5)", "T1 sequence (Q9NZJ5 whole entry)": "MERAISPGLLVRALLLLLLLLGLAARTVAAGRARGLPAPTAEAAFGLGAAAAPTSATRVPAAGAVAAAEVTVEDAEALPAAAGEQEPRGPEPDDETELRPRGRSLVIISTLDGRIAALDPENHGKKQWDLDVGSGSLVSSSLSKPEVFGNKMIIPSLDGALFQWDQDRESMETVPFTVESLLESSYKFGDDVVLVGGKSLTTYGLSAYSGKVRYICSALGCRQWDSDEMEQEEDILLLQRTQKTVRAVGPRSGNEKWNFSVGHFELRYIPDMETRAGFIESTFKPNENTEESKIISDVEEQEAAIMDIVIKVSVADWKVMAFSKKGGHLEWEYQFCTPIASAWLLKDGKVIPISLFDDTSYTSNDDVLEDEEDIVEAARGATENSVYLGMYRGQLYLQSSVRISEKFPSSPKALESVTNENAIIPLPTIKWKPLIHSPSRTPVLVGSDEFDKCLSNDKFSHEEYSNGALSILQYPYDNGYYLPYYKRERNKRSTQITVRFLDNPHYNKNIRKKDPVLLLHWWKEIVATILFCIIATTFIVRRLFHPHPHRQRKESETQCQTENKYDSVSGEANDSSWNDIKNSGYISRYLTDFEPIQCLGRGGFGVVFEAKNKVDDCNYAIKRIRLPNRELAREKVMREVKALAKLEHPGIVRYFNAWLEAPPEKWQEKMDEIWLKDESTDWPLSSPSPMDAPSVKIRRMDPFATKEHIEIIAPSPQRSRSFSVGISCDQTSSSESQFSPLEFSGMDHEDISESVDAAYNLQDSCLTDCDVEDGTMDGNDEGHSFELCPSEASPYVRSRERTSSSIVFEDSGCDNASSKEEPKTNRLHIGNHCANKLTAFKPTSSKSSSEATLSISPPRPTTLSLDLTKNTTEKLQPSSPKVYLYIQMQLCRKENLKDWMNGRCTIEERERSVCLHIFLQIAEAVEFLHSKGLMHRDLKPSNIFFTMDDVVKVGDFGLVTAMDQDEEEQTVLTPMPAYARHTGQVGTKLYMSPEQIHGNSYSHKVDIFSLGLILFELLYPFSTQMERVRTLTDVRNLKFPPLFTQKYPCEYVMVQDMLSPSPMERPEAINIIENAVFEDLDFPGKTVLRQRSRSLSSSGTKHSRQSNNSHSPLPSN", "assay": "Dose response cell-based high-throughput screening assay to measure PERK inhibition. [Related pubchem assays: 1416 ]", "type": "functional"}, "[4]": {"target": "T1, Eukaryotic translation initiation factor 2-alpha kinase 3", "assay": "Counterscreen assay for PERK inhibitors: Dose response cell-based high throughput screening assay to measure inhibition of PERK at 6 hours. [Related pubchem assays: 1522, 1416 ]", "type": "functional"}, "[5]": {"target": "Photoreceptor-specific nuclear receptor (Homo sapiens, UniProt Q9Y5X4)", "sequence (Q9Y5X4 whole entry)": "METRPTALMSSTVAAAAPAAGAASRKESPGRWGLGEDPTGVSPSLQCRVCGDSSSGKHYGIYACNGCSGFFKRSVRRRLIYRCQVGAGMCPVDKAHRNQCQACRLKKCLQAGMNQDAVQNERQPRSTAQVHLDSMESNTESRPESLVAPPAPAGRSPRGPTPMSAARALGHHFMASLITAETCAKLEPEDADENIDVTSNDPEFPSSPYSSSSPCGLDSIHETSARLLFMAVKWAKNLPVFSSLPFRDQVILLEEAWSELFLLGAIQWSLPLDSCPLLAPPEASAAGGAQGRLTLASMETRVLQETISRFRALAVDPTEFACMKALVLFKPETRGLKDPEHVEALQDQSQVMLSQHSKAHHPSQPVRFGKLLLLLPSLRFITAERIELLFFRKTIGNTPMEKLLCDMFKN", "type": "functional"}, "[6]": {"target": "Peroxisome proliferator-activated receptor gamma/Nuclear receptor corepressor 2 (Homo sapiens, UniProt P37231+Q9Y618)", "type": "functional"}, "[7]": {"target": "Dual specificity protein phosphatase 3 (Homo sapiens, UniProt P51452)", "sequence (P51452 whole entry)": "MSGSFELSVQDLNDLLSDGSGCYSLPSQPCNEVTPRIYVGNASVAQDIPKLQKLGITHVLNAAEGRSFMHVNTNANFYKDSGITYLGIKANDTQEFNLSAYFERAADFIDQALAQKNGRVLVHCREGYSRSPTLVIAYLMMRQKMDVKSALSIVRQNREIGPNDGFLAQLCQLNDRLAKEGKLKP", "assay": "inhibition constants for human DUSP3 – biochemical, colorimetric, SAR follow-up (AID 2004)"}, "[8]": {"assay": "Luminescent dose response cell-based high throughput screening assay for inhibitors of the Janus kinase 2 mutant JAK2V617F. [Related pubchem assays: 1446 (Primary screen.), 1521 (Confirmation assay.), 1486 (Counter screen.)]", "type": "functional"}, "HEK293 [9]": {"tested_on": "HEK293", "assay": "inhibition of NOD1-driven NF-kB reporter – cell-based, luminescence, uHTS, primary screen (AID 1578)", "type": "functional", "settings": "Homo sapiens"}, "BJ [10]": {"tested_on": "BJ", "assay": "BJ-TERT fibroblast viability loss – cell-based, RAS-independent, luminescence, dose response (AID 1933)", "type": "functional", "settings": "Homo sapiens"}, "HEK293 [11]": {"tested_on": "HEK293", "assay": "cells", "type": "functional, cell-based", "settings": "Homo sapiens"}, "[12]": {"target": "Transitional endoplasmic reticulum ATPase (Homo sapiens, UniProt P55072, C522A)", "sequence (P55072 2-806 C522A limits assumed)": "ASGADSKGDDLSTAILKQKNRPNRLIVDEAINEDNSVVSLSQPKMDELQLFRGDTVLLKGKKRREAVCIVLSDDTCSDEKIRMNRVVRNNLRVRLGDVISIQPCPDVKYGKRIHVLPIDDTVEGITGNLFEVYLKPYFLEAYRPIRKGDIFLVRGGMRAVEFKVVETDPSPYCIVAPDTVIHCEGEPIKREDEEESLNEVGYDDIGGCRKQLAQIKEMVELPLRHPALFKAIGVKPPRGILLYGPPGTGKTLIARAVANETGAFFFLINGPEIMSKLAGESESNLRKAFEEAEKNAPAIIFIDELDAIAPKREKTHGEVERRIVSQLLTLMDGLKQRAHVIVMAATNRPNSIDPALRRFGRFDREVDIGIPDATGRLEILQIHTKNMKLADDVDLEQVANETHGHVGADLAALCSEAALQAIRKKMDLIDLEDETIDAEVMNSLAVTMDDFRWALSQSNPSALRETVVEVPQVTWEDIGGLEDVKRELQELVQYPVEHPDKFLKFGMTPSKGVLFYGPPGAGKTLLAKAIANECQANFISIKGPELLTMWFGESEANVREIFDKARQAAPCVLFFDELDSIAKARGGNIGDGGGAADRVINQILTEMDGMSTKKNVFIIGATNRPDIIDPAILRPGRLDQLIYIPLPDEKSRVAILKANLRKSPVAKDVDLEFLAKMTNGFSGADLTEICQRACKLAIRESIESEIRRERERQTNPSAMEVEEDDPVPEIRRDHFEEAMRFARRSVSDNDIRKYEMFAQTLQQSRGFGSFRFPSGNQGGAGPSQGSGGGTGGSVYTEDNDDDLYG", "assay": "C522A mutant p97 ATPase inhibitors, dose response, counter-screen for p97 inhibitor project, biochemical, luminescence (AID 1544)"}, "BJ [13]": {"tested_on": "BJ", "assay": "cells", "type": "functional, cell-based", "settings": "Homo sapiens"}, "HEK293 [14]": {"tested_on": "HEK293", "assay": "cells", "type": "functional, cell-based", "settings": "Homo sapiens", "remark": "listed apart in the source"}, "HEK293 [15]": {"tested_on": "HEK293", "assay": "NOD2 signaling inhibitors in MDP-stimulated cells, cell-based, uHTS, luminescence (AID 2001)", "type": "functional", "settings": "Homo sapiens"}, "BJ [16]": {"tested_on": "BJ", "assay": "BJ-TERT-LT-ST fibroblast viability loss – cell-based, RAS-independent, luminescence, dose response (AID 1935);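 also: BJ fibroblasts immortalized with TERT plus LT and ST oncogenes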", "type": "functional", "settings": "Homo sapiens"}, "[17]": {"target": "Transitional endoplasmic reticulum ATPase (Homo sapiens, UniProt P55072)", "sequence (P55072 whole entry)": "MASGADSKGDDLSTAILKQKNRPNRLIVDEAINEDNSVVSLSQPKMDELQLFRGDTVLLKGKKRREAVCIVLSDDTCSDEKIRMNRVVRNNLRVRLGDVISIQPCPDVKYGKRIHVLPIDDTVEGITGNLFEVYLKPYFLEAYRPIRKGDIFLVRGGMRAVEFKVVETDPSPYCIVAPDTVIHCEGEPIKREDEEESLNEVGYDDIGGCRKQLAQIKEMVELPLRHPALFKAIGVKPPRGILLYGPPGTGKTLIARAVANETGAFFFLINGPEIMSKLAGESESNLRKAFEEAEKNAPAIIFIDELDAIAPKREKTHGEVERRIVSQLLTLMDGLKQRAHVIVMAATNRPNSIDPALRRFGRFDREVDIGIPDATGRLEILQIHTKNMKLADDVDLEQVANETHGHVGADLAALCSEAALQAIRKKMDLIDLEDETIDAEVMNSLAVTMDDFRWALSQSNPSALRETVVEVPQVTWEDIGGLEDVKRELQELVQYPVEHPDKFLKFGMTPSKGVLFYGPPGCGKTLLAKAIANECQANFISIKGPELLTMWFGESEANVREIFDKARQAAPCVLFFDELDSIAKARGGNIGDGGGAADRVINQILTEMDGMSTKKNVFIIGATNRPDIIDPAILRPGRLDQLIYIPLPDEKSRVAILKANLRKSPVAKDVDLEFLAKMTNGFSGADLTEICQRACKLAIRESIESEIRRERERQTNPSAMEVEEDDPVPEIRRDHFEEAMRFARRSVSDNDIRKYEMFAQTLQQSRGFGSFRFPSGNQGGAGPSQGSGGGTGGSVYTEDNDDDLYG", "assay": "p97 ATPase inhibitors, dose response, biochemical (AID 1534)"}, "[18]": {"assay": "DRD fibroblast viability loss – cell-based, non-viral oncogenic, luminescence, dose response (AID 1934)", "type": "functional", "settings": "Homo sapiens"}, "Tumor necrosis factor": {"target": "Tumor necrosis factor (Homo sapiens, UniProt P01375)", "assay": "analog potency on TNFa NF-kB signaling – cell-based, revised, SAR follow-up (AID 2337)", "type": "functional"}, "[19]": {"target": "Nucleotide-binding oligomerization domain-containing protein 1 (Homo sapiens, UniProt Q9Y239)", "sequence (Q9Y239 whole entry, the tested form may be a part)": "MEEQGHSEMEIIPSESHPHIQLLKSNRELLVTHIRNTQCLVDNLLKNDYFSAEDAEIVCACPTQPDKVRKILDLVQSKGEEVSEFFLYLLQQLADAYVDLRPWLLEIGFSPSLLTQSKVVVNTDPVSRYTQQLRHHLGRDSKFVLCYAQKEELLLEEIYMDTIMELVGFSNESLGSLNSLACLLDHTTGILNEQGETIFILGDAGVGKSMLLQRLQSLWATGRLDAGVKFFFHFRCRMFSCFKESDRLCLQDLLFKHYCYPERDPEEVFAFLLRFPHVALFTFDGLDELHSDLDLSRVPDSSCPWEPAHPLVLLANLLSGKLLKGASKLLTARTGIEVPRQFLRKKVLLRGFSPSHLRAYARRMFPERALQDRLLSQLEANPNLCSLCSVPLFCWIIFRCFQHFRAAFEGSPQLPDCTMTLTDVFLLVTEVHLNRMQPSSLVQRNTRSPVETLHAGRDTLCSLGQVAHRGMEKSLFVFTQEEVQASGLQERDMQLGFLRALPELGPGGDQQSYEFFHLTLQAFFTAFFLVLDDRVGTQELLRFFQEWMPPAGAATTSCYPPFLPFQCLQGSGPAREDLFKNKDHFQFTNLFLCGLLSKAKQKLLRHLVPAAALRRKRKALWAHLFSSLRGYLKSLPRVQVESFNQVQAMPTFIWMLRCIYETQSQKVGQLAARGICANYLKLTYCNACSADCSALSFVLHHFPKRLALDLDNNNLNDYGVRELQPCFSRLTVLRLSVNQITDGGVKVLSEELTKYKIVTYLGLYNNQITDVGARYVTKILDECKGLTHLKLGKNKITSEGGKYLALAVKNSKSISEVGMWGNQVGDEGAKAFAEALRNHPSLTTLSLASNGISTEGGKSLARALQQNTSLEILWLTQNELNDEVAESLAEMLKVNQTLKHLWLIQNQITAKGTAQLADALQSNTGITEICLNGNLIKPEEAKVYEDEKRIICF", "assay": "blockers of NOD1 pathway activity – revised, SAR follow-up (AID 2333)", "type": "functional"}, "[20]": {"target": "T2, Heat shock factor protein 1 (Mus musculus, UniProt P38532)", "T2 sequence (P38532 whole entry)": "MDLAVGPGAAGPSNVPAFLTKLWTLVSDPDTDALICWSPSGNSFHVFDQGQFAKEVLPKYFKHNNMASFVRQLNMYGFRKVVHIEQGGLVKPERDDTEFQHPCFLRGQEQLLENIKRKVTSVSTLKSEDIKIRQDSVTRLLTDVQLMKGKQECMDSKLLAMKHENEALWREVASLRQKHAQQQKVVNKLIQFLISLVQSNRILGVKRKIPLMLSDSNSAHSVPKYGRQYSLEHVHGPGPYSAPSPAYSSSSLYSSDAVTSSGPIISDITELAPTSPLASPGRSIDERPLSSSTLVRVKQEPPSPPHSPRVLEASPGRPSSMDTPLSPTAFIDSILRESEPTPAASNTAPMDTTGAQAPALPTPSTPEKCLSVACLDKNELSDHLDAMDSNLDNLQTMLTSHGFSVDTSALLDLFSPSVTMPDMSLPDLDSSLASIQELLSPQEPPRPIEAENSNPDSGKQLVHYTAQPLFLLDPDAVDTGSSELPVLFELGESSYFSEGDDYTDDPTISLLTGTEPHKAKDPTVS", "assay": "enhancement of HSF1-driven luciferase signal – cell-based, NIH3T3, luminescence, dose retest, confirmation (AID 435004);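 also: stress induced by proteasome inhibitor MG132 added 30 min after compound; actives raise luminescence as potentiators of the MG132 stress response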", "type": "functional"}, "[21]": {"target": "T3, Replicative DNA helicase DnaB (Mycobacterium tuberculosis, UniProt P9WMR3)", "T3 sequence (P9WMR3 whole entry)": "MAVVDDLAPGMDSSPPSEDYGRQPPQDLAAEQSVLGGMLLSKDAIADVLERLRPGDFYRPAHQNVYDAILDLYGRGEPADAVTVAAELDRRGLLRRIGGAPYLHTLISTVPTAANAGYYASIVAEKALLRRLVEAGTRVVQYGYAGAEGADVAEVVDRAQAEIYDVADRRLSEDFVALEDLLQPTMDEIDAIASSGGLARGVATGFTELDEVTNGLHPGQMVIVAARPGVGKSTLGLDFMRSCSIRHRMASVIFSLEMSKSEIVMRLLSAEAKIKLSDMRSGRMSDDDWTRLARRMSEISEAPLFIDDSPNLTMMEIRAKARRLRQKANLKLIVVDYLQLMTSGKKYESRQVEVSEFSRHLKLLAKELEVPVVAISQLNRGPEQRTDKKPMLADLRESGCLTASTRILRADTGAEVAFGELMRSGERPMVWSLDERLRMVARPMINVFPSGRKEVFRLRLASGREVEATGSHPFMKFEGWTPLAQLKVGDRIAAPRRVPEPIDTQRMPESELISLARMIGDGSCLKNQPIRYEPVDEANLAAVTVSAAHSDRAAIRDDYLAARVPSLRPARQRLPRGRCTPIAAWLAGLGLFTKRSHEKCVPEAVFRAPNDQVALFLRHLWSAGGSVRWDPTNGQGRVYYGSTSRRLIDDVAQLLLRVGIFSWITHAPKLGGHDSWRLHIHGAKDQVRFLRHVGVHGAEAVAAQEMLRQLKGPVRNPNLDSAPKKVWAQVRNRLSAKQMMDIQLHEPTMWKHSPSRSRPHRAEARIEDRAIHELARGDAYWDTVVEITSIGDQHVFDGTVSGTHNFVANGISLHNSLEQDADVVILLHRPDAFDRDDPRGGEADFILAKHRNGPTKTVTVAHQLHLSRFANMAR", "assay": "DnaB intein splicing inhibitors, dose response, biochemical, cell-free fluorescence (AID 449749)", "type": "functional"}, "BJ [22]": {"tested_on": "BJ", "assay": "growth inhibition of engineered Ras-driven BJ cells – cell-based, alamar blue fluorescence, cherrypicked samples, dose response (AID 2631);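 also: confirmatory dose-response assay in RAS-dependent BJ fibroblasts engineered with TERT, LT and ST, with cytotoxicity read by fluorescence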", "type": "functional", "settings": "Homo sapiens"}, "Protein RecA": {"target": "T4, Protein RecA (Mycobacterium tuberculosis, UniProt P9WHJ3)", "T4 sequence (P9WHJ3 whole entry)": "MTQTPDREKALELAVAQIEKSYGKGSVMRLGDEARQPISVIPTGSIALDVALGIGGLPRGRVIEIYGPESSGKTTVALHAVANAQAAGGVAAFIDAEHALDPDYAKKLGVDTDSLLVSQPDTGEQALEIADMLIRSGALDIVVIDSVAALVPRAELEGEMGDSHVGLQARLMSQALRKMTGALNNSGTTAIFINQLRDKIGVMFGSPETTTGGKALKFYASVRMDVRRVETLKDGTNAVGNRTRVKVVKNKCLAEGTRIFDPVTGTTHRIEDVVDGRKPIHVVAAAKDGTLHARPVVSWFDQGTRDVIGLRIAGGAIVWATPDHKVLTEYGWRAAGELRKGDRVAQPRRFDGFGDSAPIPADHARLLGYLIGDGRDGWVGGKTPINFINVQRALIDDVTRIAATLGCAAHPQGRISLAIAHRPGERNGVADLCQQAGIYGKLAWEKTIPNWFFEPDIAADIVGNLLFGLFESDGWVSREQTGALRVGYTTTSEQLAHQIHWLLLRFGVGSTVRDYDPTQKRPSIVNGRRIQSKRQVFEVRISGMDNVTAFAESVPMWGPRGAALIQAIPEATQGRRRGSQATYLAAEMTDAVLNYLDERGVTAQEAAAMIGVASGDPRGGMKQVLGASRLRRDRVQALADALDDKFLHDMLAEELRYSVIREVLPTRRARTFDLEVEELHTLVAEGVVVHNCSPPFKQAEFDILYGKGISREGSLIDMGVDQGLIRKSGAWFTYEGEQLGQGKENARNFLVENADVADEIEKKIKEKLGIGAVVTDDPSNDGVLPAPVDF", "assay": "Fluorescence Cell-Free Homogeneous Dose Retest to Identify Inhibitors of RecA-Intein Splicing Activity. [Related pubchem assays (depositor defined):AID2097, AID2223, AID489010, AID492950]", "type": "functional"}, "Vero": {"tested_on": "Vero", "assay": "cells", "type": "functional", "settings": "Chlorocebus sabaeus"}, "HEK293 [23]": {"tested_on": "HEK293", "assay": "cells", "settings": "Homo sapiens"}}, "note": "The source made the active and inactive calls."}
{"smiles": "C[N+]1(C)[C@@H]2CC[C@H]1CC(OC(=O)[C@@H](CO)c1ccccc1)C2", "note": "(stereo partly specified)", "values": [{"measurement": "IC50", "setting": "[1]", "result": "> 100 µM (inactive)"}, {"measurement": "IC50", "setting": "[2]", "result": "4.91 µM (active)"}]}
{"smiles": "CCCn1cnc2c(S)nc(N)nc21", "values": [{"measurement": "EC50", "setting": "[3]", "result": "> 55.7 µM (not active)"}, {"measurement": "EC50", "setting": "[4]", "result": "> 55.7 µM (not active)"}]}
{"smiles": "Cc1cc(-c2ccc(Cl)cc2)c(C#N)c(N)n1", "values": [{"measurement": "IC50", "setting": "[5]", "result": "33 µM (not active)"}, {"measurement": "IC50", "setting": "[6]", "result": "3.26 µM (active)"}]}
{"smiles": "CCC(CO)N/C=C1\\C(=O)N(c2c(Cl)cccc2Cl)c2ccccc21", "note": "(stereo unspecified)", "values": [{"measurement": "Ki", "setting": "[7]", "result": "24.2 µM (inactive)"}]}
{"smiles": "Nc1nc(CCl)nc(Nc2ccc3ccccc3c2)n1", "values": [{"measurement": "IC50", "setting": "[8]", "result": "0.476 µM (active)"}, {"measurement": "EC50", "setting": "HEK293 [9]", "result": "11.1 µM (active)"}, {"measurement": "EC50", "setting": "BJ [10]", "result": "< 0.12 µM (active)"}, {"measurement": "IC50", "setting": "HEK293 [11]", "result": "5.4 µM (active)"}, {"measurement": "IC50", "setting": "[12]", "result": "> 50 µM (not active)"}, {"measurement": "EC50", "setting": "BJ [13]", "result": "0.717 µM (inconclusive)"}, {"measurement": "IC50", "setting": "HEK293 [14]", "result": "> 20 µM (inactive)"}, {"measurement": "IC50", "setting": "HEK293 [15]", "result": "7.7 µM (active)"}, {"measurement": "EC50", "setting": "BJ [16]", "result": "8.32 µM (inconclusive)"}, {"measurement": "IC50", "setting": "[17]", "result": "> 50 µM (not active)"}, {"measurement": "EC50", "setting": "[18]", "result": "0.289 µM (active)"}, {"measurement": "IC50", "setting": "Tumor necrosis factor", "result": "11.1 µM (active)"}, {"measurement": "IC50", "setting": "[19]", "result": "3.43 µM (active)"}, {"measurement": "EC50", "setting": "[20]", "result": "> 260 µM (inactive)"}, {"measurement": "AC50", "setting": "[21]", "result": "15.4 µM (active)"}, {"measurement": "EC50", "setting": "BJ [22]", "result": "4.62 µM (active)"}, {"measurement": "EC50", "setting": "Protein RecA", "result": "19.4 µM (active)"}, {"measurement": "CC50", "setting": "Vero", "result": "1.24 µM (active)"}, {"measurement": "IC50", "setting": "HEK293 [23]", "result": "> 20 µM (inactive)"}]}
